The record followed here is US8268747B2, “Safening penoxsulam herbicide injury in water-seeded, direct-seeded and transplanted paddy rice” (Dow AgroSciences, LLC., priority 2009, dated 2012).

Series [1] relates to Cyperus difformis (smallflower umbrella sedge). As to the kind of experiment: % visual weed control in water-seeded rice, CYPDI. Format: in vivo. The note with it: 13 days after seeding, 27 days after treatment. The method, then: (§1) Pre-germinated rice was applied directly into a flooded rice paddy. The rice paddy was prepared as per normal cultural practices, by applying appropriate fertilizers, working and leveling the ground before flooding, with water flooded across the entire field to a depth of 1 to 5 inches prior to seeding with the pre-germinated rice seed.
(§2) Treatments consisted of penoxsulam and clomazone applied alone and in combination directly into the flooded rice paddy as granular formulated treatments. These treatments could also be applied as liquid applications directly into the water. Clomazone was applied the day of rice seeding, at 13 days after rice seeding, and in combination with penoxsulam at 13 days after rice seeding. Penoxsulam was applied alone and in combination with clomazone at 13 days after rice seeding.
(§3) Colby's equation was used to determine the herbicidal effects expected from the mixtures (Colby, S. R. 1967. Calculation of the synergistic and antagonistic response of herbicide combinations. Weeds 15:20-22.).
(§4) The following equation was used to calculate the expected activity of mixtures containing two active ingredients, A and B: Expected=A+B−(A×B/100)
(§5) A=observed efficacy of active ingredient A at the same concentration as used in the mixture.
(§6) B=observed efficacy of active ingredient B at the same concentration as used in the mixture.

The subject of series [2] is Leptochloa fascicularis (sprangletop). As to the kind of experiment: % visual weed control in water-seeded rice, LEFFA. Format: in vivo. The note with it: 13 days after seeding, 27 days after treatment. The method, then:
as §1, §2, §3, §4, §5, §6

Series [3] concerns Oryza sativa 'M205' (rice). The note with it: in vivo. As for the experimental part:
(§7) Evaluation of Postemergence Herbicidal Safening in Water-Seeded Rice
as §1, §2, §3, §4, §5, §6

The test system of series [4] is Oryza sativa 'M205' (rice). The series is described as follows: Rice % stand reduction, postemergence safening in water-seeded rice. As for the experimental part: as §7, §1, §2, §3, §4, §5, §6
For series [5], the system named is Echinochloa oryzoides (watergrass). As to the kind of experiment: % visual weed control in water-seeded rice, ECHOR. It is filed as in vivo. The note with it: 13 days after seeding, 27 days after treatment. The method, then:
as §1, §2, §3, §4, §5, §6

The structures appear in SMILES notation.

Take `CC1(C)CON(Cc2ccccc2Cl)C1=O` [Clomazone, 2-[(2-chlorophenyl)methyl]-4,4-dimethyl-3-isoxazolidinone]: the “% Weed Control Ratings CYPDI (3) Obs” value is given as 73% in series [1] (clomazone 224 g ai/ha alone), 88% in series [1] (clomazone 336 g ai/ha alone) and 87% in series [1] (clomazone 448 g ai/ha alone). Moreover, the entries for the “% Weed Control Ratings LEFFA (2) Obs” value in series [2] (clomazone 224 g ai/ha alone), in series [2] (clomazone 336 g ai/ha alone) and in series [2] (clomazone 448 g ai/ha alone) were 98%, 99% and 99%, respectively. For the same compound, the “visual injury to rice (text summary of Table 1)” value in series [3] is given as 0-3%. The “effect on the rice stand (text summary of Table 2)” value in series [4] (clomazone alone) is recorded as “negligible effect”. Besides, in series [4] (in vivo), the “Rice % Stand Reduction Ratings ORYSA (3) Exp” value was 3%. The “Rice % Stand Reduction Ratings ORYSA (3) Obs” value in series [4] (in vivo) amounted to 3%. For the same compound, the “% Weed Control Ratings ECHOR (1) Obs” value in series [5] (clomazone 224 g ai/ha alone) is given as 93%; in series [5] (clomazone 336 g ai/ha alone), 96%; in series [5] (clomazone 448 g ai/ha alone), 97%.

For `COc1cnc(OC)n2nc(NS(=O)(=O)c3c(OCC(F)F)cccc3C(F)(F)F)nc12` [Penoxsulam, 2-(2,2-difluoroethoxy)-N-(5,8-dimethoxy[1,2,4]triazolo[1,5-c]pyrimidin-2-yl)-6-(trifluoromethyl)benzenesulfonamide], in series [1] (penoxsulam 40 g ai/ha alone), the “% Weed Control Ratings CYPDI (3) Obs” value came to 99%. Besides, the “% Weed Control Ratings LEFFA (2) Obs” value in series [2] (penoxsulam 40 g ai/ha alone) amounted to 74%. Further, in series [3], the “Rice % Visual Injury Ratings ORYSA (1) Obs” value amounted to 12%, the “Rice % Visual Injury Ratings ORYSA (2) Obs” value was 9%, the “Rice % Visual Injury Ratings ORYSA (3) Obs” value is reported as 5% and the “injury to rice (text summary of Table 1)” value was “slight injury”. Further, in series [4] (in vivo), the “Rice % Stand Reduction Ratings ORYSA (1) Exp” value is listed as 27%, the “Rice % Stand Reduction Ratings ORYSA (1) Obs” value was 27%, the “Rice % Stand Reduction Ratings ORYSA (2) Exp” value worked out at 33% and the “Rice % Stand Reduction Ratings ORYSA (2) Obs” value came out at 33%. Besides, in series [4] (in vivo), the “Rice % Stand Reduction Ratings ORYSA (3) Exp” value worked out at 33%, the “Rice % Stand Reduction Ratings ORYSA (3) Obs” value is 33% and the “impact on the rice stand (text summary of Table 2)” value is given as “slight negative impact”. Besides, in series [5] (penoxsulam 40 g ai/ha alone), the “% Weed Control Ratings ECHOR (1) Obs” value is 98%.
